Results as given in patent publication US9049864B2, “Pyridazinone herbicidal compounds” (Syngenta Limited, priority 2012, dated 2015).

What was measured:
Assay in all cases: Post-emergence herbicidal glasshouse test, percentage damage to the plant
Type in all cases: in vivo
Settings in all cases: post-emergence, 1000 g/ha, evaluated after 13 days
[1] = test system: Alopecurus myosuroides (ALOMY)
Procedure: (§1) Seeds of a variety of test species are sown in standard soil in pots:—Solanum nigrum (SOLNI), Amaranthus retoflexus (AMARE), Setaria faberi (SETFA), Alopecurus myosuroides (ALOMY), Echinochloa crus-galli (ECHCG), Ipomoea hederacea (IPOHE). After 8 days cultivation (post-emergence) under controlled conditions in a glasshouse (at 24/16° C., day/night; 14 hours light; 65% humidity), the plants are sprayed with an aqueous spray solution derived from the formulation of the technical active ingredient in acetone/water (50:50) solution containing 0.5% Tween 20 (polyoxyethelyene sorbitan monolaurate, CAS RN 9005-64-5). Compounds are applied at 1000 g/ha. The test plants are then grown in a glasshouse under controlled conditions in a glasshouse (at 24/16° C., day/night; 14 hours light; 65% humidity) and watered twice daily. After 13 days, the test is evaluated for the percentage damage caused to the plant. The biological activities are shown in the following table on a five point scale (5=80-100%; 4=60-79%; 3=40-59%; 2=20-39%; 1=0-19%). A comparative experiment is conducted to compare the biological efficacy of a compound of the present invention with those of WO 2011/045271. The test is performed as outlined above using the following compounds. Three different application rates are employed (250 g/ha, 500 g/ha and 1000 g/ha).

[2] = test system: Amaranthus retoflexus (AMARE)
Procedure: as §1

[3] = test system: Echinochloa crus-galli (ECHCG)
Procedure: as §1

[4] = test system: Ipomoea hederacea (IPOHE)
Procedure: as §1

Setaria faberi (SETFA) = test system: Setaria faberi (SETFA)
Procedure: as §1

Solanum nigrum (SOLNI) = test system: Solanum nigrum (SOLNI)
Procedure: as §1

`CC1=NN(C)C(=O)C(n2c(Cl)c(Br)c3ccccc32)C1=O` (stereo not drawn) [Compound 1.021] was tested, and the “POST Application ALOMY, percentage damage (five point scale)” value [1] was 2 (2=20-39%), the “POST Application AMARE, percentage damage (five point scale)” value [2] was 5 (5=80-100%) and the “POST Application ECHCG, percentage damage (five point scale)” value [3] was 2 (2=20-39%). The “POST Application IPOHE, percentage damage (five point scale)” value [4] was 5 (5=80-100%), the “POST Application SETFA, percentage damage (five point scale)” value (Setaria faberi (SETFA)) was 1 (1=0-19%) and the “POST Application SOLNI, percentage damage (five point scale)” value (Solanum nigrum (SOLNI)) was 5 (5=80-100%).
For `C=C(C)C1=NN(C)C(=O)C(n2c(Cl)c(Cl)c3ccccc32)C1=O` (stereo not drawn) [Compound 2.016], the “POST Application ALOMY, percentage damage (five point scale)” value [1] was 1 (1=0-19%), the “POST Application AMARE, percentage damage (five point scale)” value [2] was 4 (4=60-79%) and the “POST Application ECHCG, percentage damage (five point scale)” value [3] was 1 (1=0-19%). For the same molecule, the “POST Application IPOHE, percentage damage (five point scale)” value [4] was 2 (2=20-39%), the “POST Application SETFA, percentage damage (five point scale)” value (Setaria faberi (SETFA)) was 1 (1=0-19%) and the “POST Application SOLNI, percentage damage (five point scale)” value (Solanum nigrum (SOLNI)) was 4 (4=60-79%).
For `COC(=O)Oc1c(C)nn(C)c(=O)c1-n1c(Cl)c(Cl)c2ccccc21` [Compound 3.004], the “POST Application ALOMY, percentage damage (five point scale)” value [1] was 2 (2=20-39%), the “POST Application AMARE, percentage damage (five point scale)” value [2] was 5 (5=80-100%) and the “POST Application ECHCG, percentage damage (five point scale)” value [3] was 4 (4=60-79%). For the same molecule, the “POST Application IPOHE, percentage damage (five point scale)” value [4] was 5 (5=80-100%), the “POST Application SETFA, percentage damage (five point scale)” value (Setaria faberi (SETFA)) was 2 (2=20-39%) and the “POST Application SOLNI, percentage damage (five point scale)” value (Solanum nigrum (SOLNI)) was 5 (5=80-100%).
`CN1N=CC(=O)C(n2ccc3ccc(Br)cc32)C1=O` (stereo not drawn) [Compound 1.006] was tested, and the “POST Application ALOMY, percentage damage (five point scale)” value [1] was 1 (1=0-19%), the “POST Application AMARE, percentage damage (five point scale)” value [2] was 1 (1=0-19%) and the “POST Application ECHCG, percentage damage (five point scale)” value [3] was 1 (1=0-19%). The “POST Application IPOHE, percentage damage (five point scale)” value [4] was 1 (1=0-19%), the “POST Application SETFA, percentage damage (five point scale)” value (Setaria faberi (SETFA)) was 1 (1=0-19%) and the “POST Application SOLNI, percentage damage (five point scale)” value (Solanum nigrum (SOLNI)) was 4 (4=60-79%).
With `CCOC1=NN(C)C(=O)C(n2c(Cl)c(Cl)c3ccccc32)C1=O` (stereo not drawn) [Compound 2.023] the “POST Application ALOMY, percentage damage (five point scale)” value [1] was 1 (1=0-19%), the “POST Application AMARE, percentage damage (five point scale)” value [2] was 2 (2=20-39%) and the “POST Application ECHCG, percentage damage (five point scale)” value [3] was 1 (1=0-19%). The “POST Application IPOHE, percentage damage (five point scale)” value [4] was 4 (4=60-79%), the “POST Application SETFA, percentage damage (five point scale)” value (Setaria faberi (SETFA)) was 1 (1=0-19%) and the “POST Application SOLNI, percentage damage (five point scale)” value (Solanum nigrum (SOLNI)) was 4 (4=60-79%).
In the case of `CN(C)C1=NN(C)C(=O)C(n2c(Cl)c(Cl)c3ccccc32)C1=O` (stereo not drawn) [Compound 2.021], the “POST Application ALOMY, percentage damage (five point scale)” value [1] is reported as 2 (2=20-39%), the “POST Application AMARE, percentage damage (five point scale)” value [2] is reported as 3 (3=40-59%) and the “POST Application ECHCG, percentage damage (five point scale)” value [3] is reported as 1 (1=0-19%). For the same molecule, the “POST Application IPOHE, percentage damage (five point scale)” value [4] was 3 (3=40-59%), the “POST Application SETFA, percentage damage (five point scale)” value (Setaria faberi (SETFA)) was 1 (1=0-19%) and the “POST Application SOLNI, percentage damage (five point scale)” value (Solanum nigrum (SOLNI)) was 4 (4=60-79%).
`CC(C)CC1=NN(C)C(=O)C(n2c(Cl)c(Cl)c3ccccc32)C1=O` (stereo not drawn) [Compound 2.009] was tested, and the “POST Application ALOMY, percentage damage (five point scale)” value [1] was 1 (1=0-19%), the “POST Application AMARE, percentage damage (five point scale)” value [2] was 1 (1=0-19%) and the “POST Application ECHCG, percentage damage (five point scale)” value [3] was 1 (1=0-19%). The “POST Application IPOHE, percentage damage (five point scale)” value [4] was 2 (2=20-39%), the “POST Application SETFA, percentage damage (five point scale)” value (Setaria faberi (SETFA)) was 1 (1=0-19%) and the “POST Application SOLNI, percentage damage (five point scale)” value (Solanum nigrum (SOLNI)) was 4 (4=60-79%).
With `CC(C)OCC1=NN(C)C(=O)C(n2c(Cl)c(Cl)c3ccccc32)C1=O` (stereo not drawn) [Compound 2.014] the “POST Application ALOMY, percentage damage (five point scale)” value [1] was 1 (1=0-19%), the “POST Application AMARE, percentage damage (five point scale)” value [2] was 2 (2=20-39%) and the “POST Application ECHCG, percentage damage (five point scale)” value [3] was 1 (1=0-19%). For the same molecule, the “POST Application IPOHE, percentage damage (five point scale)” value [4] was 5 (5=80-100%), the “POST Application SETFA, percentage damage (five point scale)” value (Setaria faberi (SETFA)) was 1 (1=0-19%) and the “POST Application SOLNI, percentage damage (five point scale)” value (Solanum nigrum (SOLNI)) was 4 (4=60-79%).
`COC(=O)Oc1c(C)nn(C)c(=O)c1-n1nc(Cl)c2ccccc21` [Compound 3.005] was tested, and the “POST Application ALOMY, percentage damage (five point scale)” value [1] was 1 (1=0-19%), the “POST Application AMARE, percentage damage (five point scale)” value [2] was 4 (4=60-79%) and the “POST Application ECHCG, percentage damage (five point scale)” value [3] was 3 (3=40-59%). The “POST Application IPOHE, percentage damage (five point scale)” value [4] was 5 (5=80-100%), the “POST Application SETFA, percentage damage (five point scale)” value (Setaria faberi (SETFA)) was 1 (1=0-19%) and the “POST Application SOLNI, percentage damage (five point scale)” value (Solanum nigrum (SOLNI)) was 5 (5=80-100%).
With `CSC1=NN(C)C(=O)C(n2c(Cl)c(Cl)c3ccccc32)C1=O` (stereo not drawn) [Compound 2.003, 4-(2,3-dichloroindol-1-yl)-2-methyl-6-methylsulfanyl-pyridazine-3,5-dione] the “POST Application ALOMY, percentage damage (five point scale)” value [1] was 1 (1=0-19%), the “POST Application AMARE, percentage damage (five point scale)” value [2] was 2 (2=20-39%) and the “POST Application ECHCG, percentage damage (five point scale)” value [3] was 1 (1=0-19%). The “POST Application IPOHE, percentage damage (five point scale)” value [4] was 4 (4=60-79%), the “POST Application SETFA, percentage damage (five point scale)” value (Setaria faberi (SETFA)) was 1 (1=0-19%) and the “POST Application SOLNI, percentage damage (five point scale)” value (Solanum nigrum (SOLNI)) was 2 (2=20-39%).
With `Cc1nn(C)c(=O)c(-n2c(Cl)c(Cl)c3ccccc32)c1OC(=O)N1CCOCC1` [Compound 3.002] the “POST Application ALOMY, percentage damage (five point scale)” value [1] was 1 (1=0-19%), the “POST Application AMARE, percentage damage (five point scale)” value [2] was 2 (2=20-39%) and the “POST Application ECHCG, percentage damage (five point scale)” value [3] was 1 (1=0-19%). The “POST Application IPOHE, percentage damage (five point scale)” value [4] was 5 (5=80-100%), the “POST Application SETFA, percentage damage (five point scale)” value (Setaria faberi (SETFA)) was 1 (1=0-19%) and the “POST Application SOLNI, percentage damage (five point scale)” value (Solanum nigrum (SOLNI)) was 5 (5=80-100%).
`CC1=NN(C)C(=O)C(n2c(Br)c(Br)c3cc(Br)ccc32)C1=O` (stereo not drawn) [Compound 1.022] was tested, and the “POST Application ALOMY, percentage damage (five point scale)” value [1] was 1 (1=0-19%), the “POST Application AMARE, percentage damage (five point scale)” value [2] was 3 (3=40-59%) and the “POST Application ECHCG, percentage damage (five point scale)” value [3] was 2 (2=20-39%). For the same molecule, the “POST Application IPOHE, percentage damage (five point scale)” value [4] was 5 (5=80-100%), the “POST Application SETFA, percentage damage (five point scale)” value (Setaria faberi (SETFA)) was 1 (1=0-19%) and the “POST Application SOLNI, percentage damage (five point scale)” value (Solanum nigrum (SOLNI)) was 5 (5=80-100%).
In the case of `Cc1nn(C)c(=O)c(-n2c(Cl)c(Cl)c3ccccc32)c1OC(=O)c1ccc([N+](=O)[O-])cc1` [Compound 3.009], the “POST Application ALOMY, percentage damage (five point scale)” value [1] is reported as 1 (1=0-19%), the “POST Application AMARE, percentage damage (five point scale)” value [2] is reported as 5 (5=80-100%) and the “POST Application ECHCG, percentage damage (five point scale)” value [3] is reported as 1 (1=0-19%). The “POST Application IPOHE, percentage damage (five point scale)” value [4] was 5 (5=80-100%), the “POST Application SETFA, percentage damage (five point scale)” value (Setaria faberi (SETFA)) was 1 (1=0-19%) and the “POST Application SOLNI, percentage damage (five point scale)” value (Solanum nigrum (SOLNI)) was 5 (5=80-100%).
`CN1N=C(S(C)(=O)=O)C(=O)C(n2c(Cl)c(Cl)c3ccccc32)C1=O` (stereo not drawn) [Compound 2.004] was tested, and the “POST Application ALOMY, percentage damage (five point scale)” value [1] was 1 (1=0-19%), the “POST Application AMARE, percentage damage (five point scale)” value [2] was 2 (2=20-39%) and the “POST Application ECHCG, percentage damage (five point scale)” value [3] was 1 (1=0-19%). For the same molecule, the “POST Application IPOHE, percentage damage (five point scale)” value [4] was 2 (2=20-39%), the “POST Application SETFA, percentage damage (five point scale)” value (Setaria faberi (SETFA)) was 1 (1=0-19%) and the “POST Application SOLNI, percentage damage (five point scale)” value (Solanum nigrum (SOLNI)) was 2 (2=20-39%).
For `CC(C)COC1=NN(C)C(=O)C(n2c(Cl)c(Cl)c3ccccc32)C1=O` (stereo not drawn) [Compound 2.019], the “POST Application ALOMY, percentage damage (five point scale)” value [1] was 1 (1=0-19%), the “POST Application AMARE, percentage damage (five point scale)” value [2] was 4 (4=60-79%) and the “POST Application ECHCG, percentage damage (five point scale)” value [3] was 1 (1=0-19%). For the same molecule, the “POST Application IPOHE, percentage damage (five point scale)” value [4] was 2 (2=20-39%), the “POST Application SETFA, percentage damage (five point scale)” value (Setaria faberi (SETFA)) was 1 (1=0-19%) and the “POST Application SOLNI, percentage damage (five point scale)” value (Solanum nigrum (SOLNI)) was 4 (4=60-79%).
`CC(C)N1N=CC(=O)C(n2cc(Cl)c3ccccc32)C1=O` (stereo not drawn) [Compound 1.010] was tested, and the “POST Application ALOMY, percentage damage (five point scale)” value [1] was 1 (1=0-19%), the “POST Application AMARE, percentage damage (five point scale)” value [2] was 1 (1=0-19%) and the “POST Application ECHCG, percentage damage (five point scale)” value [3] was 1 (1=0-19%). For the same molecule, the “POST Application IPOHE, percentage damage (five point scale)” value [4] was 1 (1=0-19%), the “POST Application SETFA, percentage damage (five point scale)” value (Setaria faberi (SETFA)) was 1 (1=0-19%) and the “POST Application SOLNI, percentage damage (five point scale)” value (Solanum nigrum (SOLNI)) was 3 (3=40-59%).
